In patent US20190183939A1, “CELL THERAPY USING MIDBRAIN-TYPE NEURAL STEM CELLS TREATED WITH VITAMIN C” (INDUSTRY-UNIVERSITY COOPERATION FOUNDATION HANYANG …, priority 2017, published 2019):

Key:
VM-NSCs [1] = assay: Cell growth curves and population doubling level during NSC expansion; format: cell-based, rat; settings: up to P1
Experimental: (§1) The cell growth profile during NSC expansion with several cell passages was generated by counting the number of viable cells at the end of each passage. Cell expansion of each NSC passage was further estimated by the population doubling level (PDL, the level at which the number of cells is doubled), which was determined by log(N/NO)/log 2 (where N is the number of cells at the end of each passage; NO is the number of cells plated initially (1×10^5 cells/cm^2)). DA neuronal cell survival in the absence or presence of toxic insults (500-1000 uM of H2O2 or 6-OHDA) was determined by counting viable TH^+ cells after staining. General cell death and DNA damage were estimated by ethidium heterodimer 1 (EthD1) (Molecular Probes) and γH2AX staining, respectively.

[2] = test system: Foxa2 and Lmx1a promoters; assay: DIP-qPCR and ChIP-qPCR on Foxa2 and Lmx1a promoters; format: cell-based, rat
Excerpt: (§2) Foxa2 and Nurr1 binding sites were identified using the Jaspar database (http://jaspar.genereg.net/) using an 80% score threshold. Predicted Foxa2 and Nurr1 binding sites were coupled with phylogenetic footprinting to eliminate spurious predictions with specified position weight matrix (PWM) settings, as described in the following reference. [Sandelin, A., and Wasserman, W. W. (2004). Constrained binding site diversity within families of transcription factors enhances pattern discovery bioinformatics. Journal of molecular biology 338, 207-215] (Table 2). ChIP and DIP assays were carried out as described in the following reference. [Prolonged membrane depolarization enhances midbrain dopamine neuron differentiation via epigenetic histone modifications. Stem Cells 29, 1861-1873]. Briefly, chromatin or genomic DNA was sheared to an average of 200-500 bp in length using a sonication Bioruptor (BMS, Seoul, Korea) and immunoprecipitated using the antibodies listed in Table 1. Immunoprecipitated DNA fragments were collected using magnetic beads (Invitrogen), purified, and subjected to real-time PCR using the primers listed in Table 3. The comparative cycle threshold method was used to quantify the results. Data were normalized to the input DNA.

[3] = test system: cultures differentiated from VM-NSCs; assay: Differentiated cell survival/death, DNA damage and resistance against toxins; format: cell-based, rat
Experimental: as §1

[4] = test system: human TH promoter regions; assay: DIP-qPCR/ChIP-qPCR on human TH promoter; format: cell-based
Excerpt: as §2

VM-NSC cultures = assay: Marker expression by immunocytochemistry and real-time PCR; format: cell-based, rat
Experimental: (§3) Cultured cells and cryosectioned brain slices were fixed with 4% paraformaldehyde (PFA), and blocked for 40 minutes in blocking solution (Blocking solution: 1% BSA+0.3% Triton X-100). For 5hmC and 5mC staining, the fixed cells were incubated with 2 N HCl for 20 minutes before the blocking reaction. The samples were incubated overnight at 4° C. in the blocking solution containing the primary antibodies listed in Supplemental Table 1. Secondary antibodies tagged with Alexa 488 (1:200, Invitrogen, Carlsbad, Calif.) and Cy3 (1:200, Jackson Immunoresearch Laboratories, West Grove, Pa.) were applied. Stained samples were mounted in Vectashield medium containing 40,6-diamidino-2-phenylindole (DAPI; Vector Laboratories, West Grove, Pa.) and analysed under an epifluorescence (Leica, Wetzlar, Germany) or confocal microscope (Leica TSP SP5).
Immunostained cells were counted in 10-20 random areas of each culture coverslip using an eyepiece grid at a magnification of 200×. Data are expressed as the mean±SEM of three to eight independent cultures. For every figure, statistical tests are justified as appropriate. Statistical comparisons were made using Student's t-test (unpaired) or one-way ANOVA followed by Tukey's post hoc analysis using SPSS® Statistics 21; IBM Inc. The relevant n, P-values, and statistical analysis methods are indicated in each figure legend.

TET = assay: Tet enzyme activity in nuclear fraction; format: biochemical, rat; settings: VC 200 μM, 4 days of proliferation, D0
Experimental: TET and JMJD3 activities were measured using Epigenase™ 5mC hydroxylase TET Activity/Inhibition Assay Kit and Epigenase™ JMJD3/UTX Demethylase Activity/Inhibition Assay Kit (Epigentek, Farmingdale, N.Y.), respectively. Briefly, cells from two 10 cm-dishes were harvested after 4 days of proliferation with or without VC (200 μM) treatment. Nuclear fractions were obtained from the cells using the EpiQuik nuclear extraction kit (Epigentek), and subjected to enzyme activity analyses.

VM-NSCs [5] = assay: DA neuron differentiation (TH+ cell yield) of in vitro expanded VM-NSCs; format: cell-based, rat
Experimental: NSCs were cultured from rat embryo VMs (Sprague Dawley) at embryonic day 12 (E12) on 6-cm dishes or 24-well plates pre-coated with 15 μg/ml poly-L-ornithine (PLO; Sigma)/1 ug/ml fibronectin (FN; Sigma, St. Louis, Mo.) in serum-free N2 medium. NSCs were induced to proliferate by the mitogenic action of basic fibroblast growth factor (bFGF, 20 ng/ml, R&D Systems, Minneapolis, Minn.). The proliferating VM-NSCs cultured in 6-cm dishes were passaged at every 4th day in mitogen-supplemented medium with or without Vitamin C (VC; Sigma; 200 μM), glutathione reduced form (GSH; Sigma; 200 μM), vitamin E (alpha-tocopherol; Sigma; 200 μM), or N-acetylcysteine (NAc; Sigma; 100 μM). The expanded NSCs at the last day of each passage were induced to differentiate by withdrawing the mitogen and antioxidants from the media (for 2-16 days). Human NSC cultures were derived by in vitro differentiation of hESCs (H9) and cultured as described in the following reference. [Rhee, Y. H., Ko, J. Y., Chang, M. Y., Yi, S. H., Kim, D., Kim, C. H., Shim, J. W., Jo, A. Y., Kim, B. W., Lee, H., et al. (2011). Protein-based human iPS cells efficiently generate functional dopamine neurons and can treat a rat model of Parkinson disease. The Journal of clinical investigation 121, 2326-2335]. The human NSCs were expanded in ITS media supplemented with bFGF (20 ng/ml) in the presence or absence of VC for two NSC passages. Differentiation of the passaged human NSCs was induced by withdrawal of bFGF and VC in ITS supplemented with brain-derived neurotrophic factor (20 ng/ml; R&D Systems), glial cell line derived neurotrophic factor (20 ng/ml; R&D Systems), and dibutyryl cAMP (0.5 mmol/1; Sigma). Cultures were maintained at 37° C. in humidified 5% CO2 incubators.
as §3
Immunostained cells were counted in 10-20 random areas of each culture coverslip using an eyepiece grid at a magnification of 200×. Data are expressed as the mean±SEM of three to eight independent cultures. […]

`O=C1O[C@H]([C@@H](O)CO)C(O)=C1O` [VC, L-ascorbic acid] was tested. Which “VM-NSC survival and proliferation” value (VM-NSCs [1]) did it give?
Its value is “none of the anti-oxidant treatments tested, including VC, significantly altered”.

What about the “binding of Tet1, Jmjd3 and Jmjd2 proteins to Foxa2 and Lmx1a promoter regions” value ([2]; ChIP-qPCR, D0) of the same molecule?
The value was “increased binding”.

And the “5mC levels in Foxa2 promoter regions” value ([2]; MeDIP-qPCR, VC-treated NSCs)?
Its value is “reduced”.

And the “5hmC in Foxa2 promoter regions” value ([2]; hMeDIP-qPCR, VC-treated NSCs)?
The value was “more abundant”.

What about the “DA neurons died after exposure to H2O2 or 6-OHDA” value ([3]; 500 and 1000 μM for 8 hours at D8, VC during expansion) of the same molecule?
The value was “remarkably lower proportions”.

What about the “γH2AX foci, % cells with >3 foci” value ([3]; D12 as printed, VC during expansion) of the same molecule?
Its value is 24.3%.

What about the “cell death (EthD-1+ dead cell counting)” value ([3]; differentiation D8, VC during NSC expansion and passaging) of the same molecule?
The value was “considerably reduced”.

What about the “H3K9m3/H3K27m3 levels in human TH promoter regions” value [4] of the same molecule?
Its value is “undetectable”.

And the “levels of 5hmC at human TH promoter regions” value ([4]; two consensus Nurr1 binding sites, D6)?
The value was “enhanced”.

And the “percentage of cells expressing Foxa2 and Lmx1a” value (VM-NSC cultures; D0, VC during expansion)?
Its value is “enhanced”.

And the “percentage of Nurr1+ cells” value (VM-NSC cultures; D2, VC during proliferating NSC stage)?
Its value is “greater”.

And the “mRNA expression of GFAP and GFAP+ astrocyte yields” value (VM-NSC cultures; VC during proliferating VM-NSC stage)?
Its value is “significantly enhanced”.

What about the “mRNA expression levels of TPH2 and GAD67” value (VM-NSC cultures; VC during proliferation) of the same molecule?
The value was “no significant alteration”.

What about the “expression of Nestin, Sox2 and Otx2 markers” value (VM-NSC cultures; proliferating VM-NSC cultures) of the same molecule?
Its value is “not altered”.

And the “mRNA levels of Foxa2 and Lmx1a” value (VM-NSC cultures; real-time PCR, D0)?
Its value is “enhanced”.

And the “Tet enzyme activity in nuclear fractions” value (TET)?
The value was “greatly enhanced”.

What about the “expression of other DA phenotypes (VMAT2, AADC and DAT) in TH+ cells” value (VM-NSCs [5]; P1, VC during expansion, differentiated 12 days without VC) of the same molecule?
Its value is “Virtually all”.

And the “TH+ cell yields (% of total DAPI+ cells)” value (VM-NSCs [5]; VC 200 uM during expansion, P1 cultures, differentiated without VC, D6)?
The value was 10.85±1.2%.

And the “TH+ DA neuronal yields” value (VM-NSCs [5]; VC during expansion, P2 cultures, differentiated without VC)?
Its value is 1.22±0.1%.

What about the “prevention of DA neuron loss in passaged cultures” value (VM-NSCs [5]; antioxidant during expansion for 8 days (up to P1), differentiation without antioxidants) of the same molecule?
Its value is “prevention of DA neuron loss”.
